# Reference: patent US20240115221A1, “POSITRON IMAGING TOMOGRAPHY IMAGING AGENT C[…] METHOD FOR BACTERIAL INFECTION” (The Research Foundation for the State University of New York, priority 2016, published 2024)
# Columns and labels:
# E. coli [1] = test: MIC determination (antibacterial activity); format: cell-based; conditions: Escherichia coli
# Description: (§1) Expressed and purified dihydropteroate synthase (DHPS) from S. aureus (saDHPS) was cloned. DHPS is the enzyme that installs PABA (p-aminobenzoic acid) in the folate biosynthesis pathway (Scheme 2). […] Using a coupled assay, it was determined that the kinetic parameters for saDHPS with PABA, PAS and F-PABA. […] Since PAS is an antibacterial compound whose mechanism of action may be related for the ability of this compound to compete with PABA for DHPS, we determined the antibacterial activity and cytotoxicity of F-PABA for several bacterial species as well as Vero cells. In each case no growth inhibition was observed up to 200 μg/ml.
# M. tuberculosis = test: MIC determination (antibacterial activity); format: cell-based; conditions: Mycobacterium tuberculosis
# Description: as §1
# S. aureus [2] = test: MIC determination (antibacterial activity); format: cell-based; conditions: Staphylococcus aureus
# Description: as §1
# [3] = target: T1, dihydropteroate synthase (DHPS) from S. aureus (saDHPS) (Staphylococcus aureus, UniProt O05701); test: Coupled assay, kinetic parameters for saDHPS; format: biochemical
# T1 construct: made in house
# Description: as §1
# [4] = system: several bacterial species; test: Antibacterial activity for several bacterial species; format: cell-based
# Vero cells = test: Cytotoxicity for Vero cells; format: cell-based
# Description: as §1
# S. aureus [5] = test: Rat triceps infection, tracer accumulation and bacterial load under vancomycin treatment
# Text: A key goal is to identify a tracer that can be used to quantify bacterial load and monitor the change in bacterial load during and following antibiotic treatment.
# [6] = system: methicillin sensitive S. aureus (MSSA, Newman); test: Uptake of [18F]F-PABA by bacteria; format: cell-based
# Text: (§2) The ability of different bacterial species to take up [^18F] F-PABA was studied. The radiotracer accumulated in both methicillin sensitive S. aureus (MSSA, Newman) and methicillin-resistant S. aureus (MRSA), as well as the Gram negative bacteria E. coli and Klebsiela pneumoniae.
# (§3) In contrast, [^18F]F-PABA was not taken up by Enterococcus faecalis. E. faecalis has a folate salvage pathway and can take up folate from the environment. Thus, folic acid biosynthesis is dispensable in this organism, which also explains why sulfonamides are not used to treat infection by E. faecalis.
# E. coli [7] = test: Uptake of [18F]F-PABA by bacteria; format: cell-based
# Text: as §2
# Klebsiela pneumoniae = test: Uptake of [18F]F-PABA by bacteria; format: cell-based
# Text: as §2
# [8] = system: methicillin-resistant S. aureus (MRSA); test: Uptake of [18F]F-PABA by bacteria; format: cell-based
# Text: as §2
# Enterococcus faecalis = test: Uptake of [18F]F-PABA by bacteria; format: cell-based
# Text: as §3
# Newman S. aureus [9] = test: Rat triceps S. aureus infection model, PET imaging and ex vivo counting; format: in vivo
# Description: Initial in vivo studies focused on soft tissue models of MSSA infection. This included a mouse thigh infection model and rat triceps model. […] Fifty μL of 10^9 CFU of Newman S. aureus BHI culture was injected into the right triceps of a rat. After 10-15 hr the rats were imaged following iv administration of 0.8-1.2 mCi of [^18F]F-PABA. The images clearly show the accumulation of radioactivity in the right but not the left triceps. In addition to monitoring the time course of [^18F]F-PABA biodistribution, we also quantified tracer levels by postmortem ex vivo counting. […] At 60 min tracer levels were 5.4× higher in the infected right triceps compared to the uninfected left triceps. This compares favorably with other tracers.
# Newman S. aureus [10] = test: Rat triceps infection versus sterile inflammation (heat-killed S. aureus); format: in vivo; conditions: right triceps infected, left triceps heat-killed S. aureus
# Description: One of the main limitations of using FDG to image infection is that FDG accumulates in the mammalian cells involved in the inflammatory response to infection. It was analyzed how inflammation affected the biodistribution of [^18F]F-PABA by generating an inflammatory response using 50 μL of […] of Newman S. aureus heat-killed bacteria.
# accumulation of [^18F]F-PABA at the site of infection is likely not due to uptake by cells involved in the inflammatory response.
# [11] = after a further 3 doses of vancomycin
# T1 sequence (O05701 whole entry): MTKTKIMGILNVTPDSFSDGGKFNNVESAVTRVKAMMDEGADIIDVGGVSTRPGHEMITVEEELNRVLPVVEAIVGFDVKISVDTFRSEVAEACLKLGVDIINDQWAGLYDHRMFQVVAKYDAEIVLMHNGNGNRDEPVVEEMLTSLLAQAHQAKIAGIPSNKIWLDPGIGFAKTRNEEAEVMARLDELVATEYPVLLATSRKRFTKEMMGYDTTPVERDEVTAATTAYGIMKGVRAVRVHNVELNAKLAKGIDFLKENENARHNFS
smiles,measurement,setting,value
"Nc1ccc(C(=O)O)c(F)c1 [2-F-PABA, 2-fluoro-4-aminobenzoic acid]",MIC,E. coli [1],> 200 µg/mL
same,MIC,M. tuberculosis,> 100 µg/mL
same,MIC,S. aureus [2],> 200 µg/mL
same,substrate for saDHPS,[3],alternative substrate for saDHPS
same,MIC,"[4]; discussion, species not named",> 100 µg/mL
same,concentration up to which no growth inhibition was observed,[4]; several bacterial species,> 200 µg/mL
same,antibacterial activity,[4]; summary of Table 1,no antibacterial activity
same,concentration up to which no growth inhibition was observed (cytotoxicity),Vero cells,> 200 µg/mL
"CN[C@H](CC(C)C)C(=O)N[C@H]1C(=O)N[C@@H](CC(N)=O)C(=O)N[C@H]2C(=O)N[C@H]3C(=O)N[C@H](C(=O)N[C@H](C(=O)O)c4cc(O)cc(O)c4-c4cc3ccc4O)[C@H](O)c3ccc(c(Cl)c3)Oc3cc2cc(c3O[C@@H]2O[C@H](CO)[C@@H](O)[C@H](O)[C@H]2O[C@H]2C[C@](C)(N)[C@H](O)[C@H](C)O2)Oc2ccc(cc2Cl)[C@H]1O [vancomycin, reference compound]",bacterial burden of infected triceps,S. aureus [5]; after 3 doses of vancomycin,8.1±0.3 Log10 CFU
same,decrease in bacterial burden,S. aureus [5]; after 3 doses of vancomycin,~3 logs
same,bacterial burden of infected triceps,S. aureus [5]; [11],7.0±0.9 Log10 CFU
same,additional decrease in bacterial burden,S. aureus [5]; further 3 doses of vancomycin,1 log
"Nc1ccc(C(=O)O)c([18F])c1 [[^18F]F-PABA, 4-Amino-2-[^18f]-fluorobenzoic acid]",uptake of radiotracer,[6]; heat-killed MSSA cells,unable to take up
same,uptake of radiotracer,[6]; viable MSSA (Newman),accumulated
same,uptake of radiotracer,E. coli [7],accumulated
same,uptake of radiotracer,Klebsiela pneumoniae,accumulated
same,uptake of radiotracer,[8],accumulated
same,uptake of radiotracer,Enterococcus faecalis,not taken up
same,tracer levels in infected right triceps compared to uninfected left triceps,"Newman S. aureus [9]; iv 0.8-1.2 mCi, at 60 min",5.4 ×
same,biodistribution of tracer,"Newman S. aureus [9]; iv, postmortem ex vivo counting",distributed to all tissues and organs with the exception of the brain
same,radiotracer levels at site of infection compared to site of sterile inflammation,Newman S. aureus [10],10 fold
same,tracer accumulation in infected triceps,S. aureus [5]; after 3 doses of vancomycin,0.015±0.005 %1D/cc
same,decrease in tracer levels,S. aureus [5]; after 3 doses of vancomycin versus before treatment,~3 fold
same,tracer accumulation in infected triceps,S. aureus [5]; [11],0.013±0.002 % 10/cc
same,tracer accumulation in infected triceps,S. aureus [5]; before treatment,0.051±0.008 %1D/cc
same,tracer levels in the uninfected triceps,S. aureus [5]; uninfected triceps,0.007±0.001 %1D/cc
